Biological target: T1, human recombinant LPA2 expressed in CHO cells (Homo sapiens, UniProt Q9HBW0)
T1 construct: expressed in transfected cells; host or cells: CHO cells (CHO-hLPA2 cell line)
Assay: FLIPR calcium mobilization assay, LPA2 antagonism in CHO-hLPA2 cells
Format: cell-based
Conditions: CHO-hLPA2 cells, inhibition of LPA EC80 Ca2+ response, 30 min pre-incubation; read-out: LPA2 IC50
Description: The effectiveness of compounds of the present invention as LPA2 antagonist can be determined at the human recombinant LPA2 expressed in CHO cells, using a FLIPR assay in 384 well format.
CHO-hLPA2 cell lines are cultured in a humidified incubator at 5% C02 in DMEM/F-12 (1:1) MIXTURE with 2 mM Glutamax, supplemented with 10% of Foetal Bovine Serum, 1 mM Sodium Pyruvate, 11 mM Hepes and 1× Penicillin/Streptomycin. CHO hLPA2 cells are seeded into black walled clear-bottom 384-well plates (#781091, Greiner Bio-One GmbH) at a density of 7,500 cells per well in 50 μl culture media and grown overnight in a 37° C. humidified CO2-incubator. Serial dilutions (1:3 or 1:4, 11 points CRC) of compounds are performed in 100% DMSO at 200× the final concentration. The compounds are diluted 1:50 prior to the experiment with Assay Buffer (20 mM HEPES, 145 mM NaCl, 5 mM KCl, 5.5 mM glucose, 1 mM MgCl2 and 2 mM CaCl2, pH 7.4 containing 0.01% Pluronic F-127) to obtain a solution corresponding to […] the final concentration in the assay (4×, 2% DMSO). The final concentration of DMSO in the assay will be 0.5% in each well. Medium is removed by aspiration and cells are then incubated with 30 μl of a loading solution containing 5 μM of the cytoplasmic Ca2+ indicator Cal-520 AM in Assay Buffer containing 2.5 mM probenecid for 30 min at 37° C. incubator (cell loading). The loaded cell plates are transferred into the FLIPR instrument and calcium responses are monitored during the on-line addition protocols. For testing of compounds, after the cell loading, 10 μl/well of 4× antagonists' solution was added onto the cells. After 30 min pre-incubation (at 37° C.), 10 μl/well of 5× concentrated LPA EC80 was added and Ca2+ mobilization responses was followed during the on-line addition protocol. Intracellular peak fluorescence values subtracted by baseline fluorescence are exported and analysed to determine IC50 values, respectively. The calcium response is expressed as percentage of the maximal inhibition of the EC80 agonist response.
The raw data (peak height expressed as relative fluorescence units) are normalized and transformed into “percent of inhibition”. Curve fitting and pIC50 (−LogIC50) estimations are carried out using a four-parameter logistic model using XLfit Software.

T1 sequence (Q9HBW0 whole entry): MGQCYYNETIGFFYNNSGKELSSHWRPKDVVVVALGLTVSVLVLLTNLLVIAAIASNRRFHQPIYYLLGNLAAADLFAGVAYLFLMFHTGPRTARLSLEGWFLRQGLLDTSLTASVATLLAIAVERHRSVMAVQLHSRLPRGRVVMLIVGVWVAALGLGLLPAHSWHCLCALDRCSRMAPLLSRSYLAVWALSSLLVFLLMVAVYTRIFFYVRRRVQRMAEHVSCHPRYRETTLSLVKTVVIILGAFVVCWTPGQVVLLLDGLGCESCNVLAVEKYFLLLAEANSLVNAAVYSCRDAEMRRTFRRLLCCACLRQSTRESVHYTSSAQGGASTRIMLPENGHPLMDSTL

Row | SMILES | IC50 [nM]
1 | C[C@@H](CN1CCN(S(=O)(=O)c2ccccc2)CC1)Nc1ncnc2c(-c3cn(C)nc3C(F)(F)F)cccc12 [Example 88, N-[(2S)-1-[4-(benzenesulfonyl)piperazin-1-yl]propan-2-yl]-8-[1-methyl-3-(trifluoromethyl)-1H-pyrazol-4-yl]quinazolin-4-amine] | 10 to 100
2 | Cc1nc(NCCN(C)C)sc1S(=O)(=O)N1CCN(C[C@H](C)Nc2ncnc3c(-c4c(C)n[nH]c4C)cccc23)CC1 [Example 39, 8-(3,5-dimethyl-1H-pyrazol-4-yl)-N-[(2S)-1-{4-[(2-{[2-(dimethylamino)ethyl]amino}-4-methyl-1,3-thiazol-5-yl)sulfonyl]piperazin-1-yl}propan-2-yl]quinazolin-4-amine] | 10 to 100
3 | C[C@@H](CN1CCN(S(=O)(=O)c2ccc3c(c2)sc(=O)n3C)CC1)Nc1ncnc2c(-c3cccnc3)cccc12 [Example 94, 3-methyl-6-({4-[(2S)-2-{[8-(pyridin-3-yl)quinazolin-4-yl]amino}propyl]piperazin-1-yl}sulfonyl)-2,3-dihydro-1,3-benzothiazol-2-one] | 10 to 100
4 | COC(=O)Nc1nc(C)c(S(=O)(=O)N2CCN(C[C@H](C)Nc3ncnc4c(-c5cnn(C)c5)cccc34)CC2)s1 [Example 65, methyl N-[4-methyl-5-({4-[(2S)-2-{[8-(1-methyl-1H-pyrazol-4-yl)quinazolin-4-yl]amino}propyl]piperazin-1-yl}sulfonyl)-1,3-thiazol-2-yl]carbamate] | < 10
5 | Cc1cc(-c2ccc(S(=O)(=O)N3CCN(C[C@H](C)Nc4ncnc5c(-c6cn(C)nc6C6CC6)cccc45)CC3)s2)on1 [Example 18, 8-(3-cyclopropyl-1-methyl-1H-pyrazol-4-yl)-N-[(2S)-1-(4-{[5-(3-methyl-1,2-oxazol-5-yl)thiophen-2-yl]sulfonyl}piperazin-1-yl)propan-2-yl]quinazolin-4-amine] | < 10
6 | CC(=O)N1CCc2cc(S(=O)(=O)N3CCN(C[C@H](C)Nc4ncnc5c(-c6ccc(C)nc6)cccc45)CC3)ccc21 [Example 69, 1-[5-({4-[(2S)-2-{[8-(6-methylpyridin-3-yl)quinazolin-4-yl]amino}propyl]piperazin-1-yl}sulfonyl)-2,3-dihydro-1H-indol-1-yl}ethan-1-one] | < 10
7 | COCC(=O)Nc1ncc(S(=O)(=O)N2CCN(C[C@H](C)Nc3ncnc4c(-c5cccnc5)cccc34)CC2)s1 [Example 49, 2-methoxy-N-[5-({4-[(2S)-2-{[8-(pyridin-3-yl)quinazolin-4-yl]amino}propyl]piperazin-1-yl}sulfonyl)-1,3-thiazol-2-yl]acetamide] | 10 to 100
8 | C[C@@H](CN1CCN(S(=O)(=O)c2ccc(Cl)c(Cl)c2)CC1)Nc1ncnc2c(-c3cccnc3)cccc12 [Example 31, N-[(2S)-1-[4-(3,4-dichlorobenzenesulfonyl)piperazin-1-yl]propan-2-yl]-8-(pyridin-3-yl)quinazolin-4-amine] | < 10
9 | Cc1cc(-c2ccc(S(=O)(=O)N3CCN(C[C@H](C)Nc4ncnc5c(-c6cccc(CN(C)C)c6)cccc45)CC3)s2)on1 [Example 17, 8-{3-[(dimethylamino)methyl]phenyl}-N-[(2S)-1-(4-{[5-(3-methyl-1,2-oxazol-5-yl)thiophen-2-yl]sulfonyl}piperazin-1-yl)propan-2-yl]quinazolin-4-amine] | < 10
10 | COC(=O)Nc1nc(C)c(S(=O)(=O)N2CCN(C[C@H](C)Nc3ncnc4c(-c5cncc(N)c5)cccc34)CC2)s1 [Example 61, methyl N-[5-({4-[(2S)-2-{[8-(5-aminopyridin-3-yl)quinazolin-4-yl]amino}propyl]piperazin-1-yl}sulfonyl)-4-methyl-1,3-thiazol-2-yl]carbamate] | < 10
11 | COC(=O)Nc1nc(C)c(S(=O)(=O)N2CCN(C[C@H](C)Nc3ncnc4c(-c5cncc(C=O)c5)cccc34)CC2)s1 [Example 87, methyl N-[5-({4-[(2S)-2-{[8-(5-formylpyridin-3-yl)quinazolin-4-yl]amino}propyl]piperazin-1-yl}sulfonyl)-4-methyl-1,3-thiazol-2-yl]carbamate] | < 10
12 | COC(=O)Nc1nc(C)c(S(=O)(=O)N2CCN(C[C@H](C)Nc3ncnc4c(-c5cn(CCN(C)C)nc5C(F)(F)F)cccc34)CC2)s1 [Example 102, methyl N-[5-({4-[(2S)-2-[(8-{1-[2-(dimethylamino)ethyl]-3-(trifluoromethyl)-1H-pyrazol-4-yl}quinazolin-4-yl)amino]propyl]piperazin-1-yl}sulfonyl)-4-methyl-1,3-thiazol-2-yl]carbamate] | < 10
13 | COC(=O)Nc1nc(C)c(S(=O)(=O)N2CCN(C[C@H](C)Nc3ncnc4c(-c5cccnc5C)cccc34)CC2)s1 [Example 48, methyl N-[4-methyl-5-({4-[(2S)-2-{[8-(2-methylpyridin-3-yl)quinazolin-4-yl]amino}propyl]piperazin-1-yl}sulfonyl)-1,3-thiazol-2-yl]carbamate] | < 10
14 | C[C@@H](CN1CCN(S(=O)(=O)c2ccc3c(c2)sc(=O)n3C)CC1)Nc1ncnc2c(-c3ccc(F)c(CN(C)C)c3)cccc12 [Example 96, 6-({4-[(2S)-2-[(8-{3-[(dimethylamino)methyl]-4-fluorophenyl}quinazolin-4-yl)amino]propyl]piperazin-1-yl}sulfonyl)-3-methyl-2,3-dihydro-1,3-benzothiazol-2-one] | < 10
15 | Cc1nc2ccc(S(=O)(=O)N3CCN(C[C@H](C)Nc4ncnc5c(-c6ccc(F)c(CN(C)C)c6)cccc45)CC3)cc2s1 [Example 105, 8-{3-[(dimethylamino)methyl]-4-fluorophenyl}-N-[(2S)-1-{4-[(2-methyl-1,3-benzothiazol-6-yl)sulfonyl]piperazin-1-yl}propan-2-yl]quinazolin-4-amine] | < 10

Second part, the compound after the results:

Row | IC50 [nM] | SMILES
16 | < 10 | COC(=O)Nc1nc(C)c(S(=O)(=O)N2CCN(C[C@H](C)Nc3ncnc4c(-c5cccc(CN(C)C)c5)cccc34)CC2)s1 [Example 21, methyl N-[5-({4-[(2S)-2-[(8-{3-[(dimethylamino)methyl]phenyl}quinazolin-4-yl)amino]propyl]piperazin-1-yl}sulfonyl)-4-methyl-1,3-thiazol-2-yl]carbamate]
17 | < 10 | COC(=O)Nc1nc(C)c(S(=O)(=O)N2CCN(C[C@H](C)Nc3ncnc4c(-c5ccc(C)nc5C)cccc34)CC2)s1 [Example 92, methyl N-[5-({4-[(2S)-2-{[8-(2,6-dimethylpyridin-3-yl)quinazolin-4-yl]amino}propyl]piperazin-1-yl}sulfonyl)-4-methyl-1,3-thiazol-2-yl]carbamate]
18 | < 10 | COC(=O)Nc1nc(C)c(S(=O)(=O)N2CCN(C[C@H](C)Nc3ncnc4c(-c5sc(C)nc5C)cccc34)CC2)s1 [Example 1, methyl N-[5-({4-[(2S)-2-{[8-(2,4-dimethyl-1,3-thiazol-5-yl)quinazolin-4-yl]amino}propyl]piperazin-1-yl}sulfonyl)-4-methyl-1,3-thiazol-2-yl]carbamate]
19 | < 10 | COC(=O)Nc1nc(C)c(S(=O)(=O)N2CCN(C[C@H](C)Nc3ncnc4c(-c5cccc(CN6CCN(C)CC6)c5)cccc34)CC2)s1 [Example 24, methyl N-[4-methyl-5-({4-[(2S)-2-[(8-{3-[(4-methylpiperazin-1-yl)methyl]phenyl}quinazolin-4-yl)amino]propyl]piperazin-1-yl}sulfonyl)-1,3-thiazol-2-yl]carbamate]
20 | < 10 | COC(=O)Nc1nc(C)c(S(=O)(=O)N2CCN(C[C@H](C)Nc3ncnc4c(-c5cccc(N6CCN(C)CC6)c5)cccc34)CC2)s1 [Example 35, methyl N-[4-methyl-5-({4-[(2S)-2-({8-[3-(4-methylpiperazin-1-yl)phenyl]quinazolin-4-yl}amino)propyl]piperazin-1-yl}sulfonyl)-1,3-thiazol-2-yl]carbamate]
21 | < 10 | COC(=O)Nc1nc(C)c(S(=O)(=O)N2CCN(C[C@H](C)Nc3ncnc4c(-c5cncnc5)cccc34)CC2)s1 [Example 40, methyl N-[4-methyl-5-({4-[(2S)-2-{[8-(pyrimidin-5-yl)quinazolin-4-yl]amino}propyl]piperazin-1-yl}sulfonyl)-1,3-thiazol-2-yl]carbamate]
22 | < 10 | Cc1cc(-c2ccc(S(=O)(=O)N3CCN(C[C@H](C)Nc4ncnc5c(-c6sc(C)nc6C)cccc45)CC3)s2)on1 [Example 7, 8-(2,4-dimethyl-1,3-thiazol-5-yl)-N-[(2S)-1-(4-{[5-(3-methyl-1,2-oxazol-5-yl)thiophen-2-yl]sulfonyl}piperazin-1-yl)propan-2-yl]quinazolin-4-amine]
